Test results: US20230278972A1, “SUBSTITUTED HALOALKYL SULFONANILIDE HERBICIDES” (FMC Corporation, priority 2020, published 2023)

What was measured:
Format in all cases: in vivo
[1] = tested on: ragweed (common ragweed, Ambrosia artemisiifolia); assay: Test A preemergence, ragweed; conditions: Preemergence; for Ragweed plant response rating: 125 g ai/ha, visual injury on 0 to 100 scale (0 no effect, 100 complete control), approximately 10 days; for Plant response rating, Ragweed: 500 g ai/ha, 0 to 100 scale (0 no effect, 100 complete control)
Summary of the method: (§1)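 Preemergence: seeded pots of loam plus sand received a directed soil spray. Postemergence: seedlings at one to two leaves, 2 to 10 cm high, were oversprayed. Each compound was formulated in a non-phytotoxic solvent mix that included a surfactant.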

[2] = tested on: Foxtail, Giant (giant foxtail, Setaria faberi); assay: Test A preemergence, Foxtail, Giant; conditions: Preemergence; for Foxtail, Giant plant response rating: 125 g ai/ha, visual injury on 0 to 100 scale (0 no effect, 100 complete control), approximately 10 days; for Plant response rating, Foxtail, Giant: 500 g ai/ha, 0 to 100 scale (0 no effect, 100 complete control)
Summary of the method: as §1

[3] = tested on: pigweed (Amaranthus retroflexus); assay: Test A preemergence, pigweed; conditions: for Pigweed plant response rating: 125 g ai/ha, visual injury on 0 to 100 scale (0 no effect, 100 complete control), approximately 10 days; for Plant response rating, Pigweed: 500 g ai/ha, 0 to 100 scale (0 no effect, 100 complete control)
Summary of the method: (§2)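 Directed soil spray at planting gave the preemergence treatment, while foliar application to one- to two-leaf seedlings (2–10 cm) gave the postemergence one; pots held a loam and sand mixture and chemicals were carried in a non-phytotoxic solvent with surfactant.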

[4] = tested on: wheat (Triticum aestivum); assay: Test A postemergence, wheat; conditions: Postemergence, 0 to 100 scale (0 no effect, 100 complete control); for Wheat plant response rating: visual injury vs untreated controls after approx. 10 days
Summary of the method: as §2

[5] = tested on: Foxtail, Giant (giant foxtail, Setaria faberi); assay: Test A postemergence, Foxtail, Giant; conditions: Postemergence, 0 to 100 scale (0 no effect, 100 complete control); for Foxtail, Giant plant response rating: visual injury vs untreated controls after approx. 10 days
Summary of the method: as §1

[6] = tested on: Ryegrass, Italian (Italian ryegrass, Lolium multiflorum); assay: Test A preemergence, Ryegrass, Italian; conditions: Preemergence; for Ryegrass, Italian plant response rating: 125 g ai/ha, visual injury on 0 to 100 scale (0 no effect, 100 complete control), approximately 10 days; for Plant response rating, Ryegrass, Italian: 500 g ai/ha, 0 to 100 scale (0 no effect, 100 complete control)
Summary of the method: as §1

corn (Zea mays) = assay: Test A postemergence, corn; conditions: Postemergence, 0 to 100 scale (0 no effect, 100 complete control); for Corn plant response rating: visual injury vs untreated controls after approx. 10 days
Summary of the method: as §1

[7] = tested on: galium (catchweed bedstraw, Galium aparine); assay: Test A postemergence, galium; conditions: Postemergence, 0 to 100 scale (0 no effect, 100 complete control); for Galium plant response rating: visual injury vs untreated controls after approx. 10 days
Summary of the method: as §2

kochia (Bassia scoparia) [8] = assay: Test A postemergence, kochia; conditions: Postemergence, 0 to 100 scale (0 no effect, 100 complete control); for Kochia plant response rating: visual injury vs untreated controls after approx. 10 days
Summary of the method: as §1

[9] = tested on: pigweed (Amaranthus retroflexus); assay: Test A postemergence, pigweed; conditions: Postemergence, 0 to 100 scale (0 no effect, 100 complete control); for Pigweed plant response rating: visual injury vs untreated controls after approx. 10 days
Summary of the method: as §1

kochia (Bassia scoparia) [10] = assay: Test A preemergence, kochia; conditions: Preemergence; for Kochia plant response rating: 125 g ai/ha, visual injury on 0 to 100 scale (0 no effect, 100 complete control), approximately 10 days; for Plant response rating, Kochia: 500 g ai/ha, 0 to 100 scale (0 no effect, 100 complete control)
Summary of the method: as §1

[11] = tested on: barnyardgrass (Echinochloa crus-galli); assay: Test A preemergence, barnyardgrass; conditions: Preemergence; for Barnyardgrass plant response rating: 125 g ai/ha, visual injury on 0 to 100 scale (0 no effect, 100 complete control), approximately 10 days; for Plant response rating, Barnyardgrass: 500 g ai/ha, 0 to 100 scale (0 no effect, 100 complete control)
Summary of the method: as §1

[12] = tested on: barnyardgrass (Echinochloa crus-galli); assay: Test A postemergence, barnyardgrass; conditions: Postemergence, 0 to 100 scale (0 no effect, 100 complete control); for Barnyardgrass plant response rating: visual injury vs untreated controls after approx. 10 days
Summary of the method: as §2

[13] = tested on: Ryegrass, Italian (Italian ryegrass, Lolium multiflorum); assay: Test A postemergence, Ryegrass, Italian; conditions: Postemergence, 0 to 100 scale (0 no effect, 100 complete control); for Ryegrass, Italian plant response rating: visual injury vs untreated controls after approx. 10 days
Summary of the method: as §1

[14] = tested on: blackgrass (Alopecurus myosuroides); assay: Test A postemergence, blackgrass; conditions: Postemergence, 0 to 100 scale (0 no effect, 100 complete control); for Blackgrass plant response rating: visual injury vs untreated controls after approx. 10 days
Summary of the method: as §1

[15] = tested on: ragweed (common ragweed, Ambrosia artemisiifolia); assay: Test A postemergence, ragweed; conditions: Postemergence, 0 to 100 scale (0 no effect, 100 complete control); for Ragweed plant response rating: visual injury vs untreated controls after approx. 10 days
Summary of the method: as §1

[16] = 125 g ai/ha, visual injury approx. 10 days
[17] = 500 g ai/ha, visual injury, approx. 10 days

SMILES	Ragweed plant response rating [1]	Plant response rating, Ragweed [1]	Foxtail, Giant plant response rating [2]	Plant response rating, Foxtail, Giant [2]	Pigweed plant response rating [3]	Plant response rating, Pigweed [3]	Plant response rating, Wheat [4, 16]	Plant response rating, Foxtail, Giant [5, 16]	Ryegrass, Italian plant response rating [6]	Plant response rating, Ryegrass, Italian [6]	Plant response rating, Corn (corn (Zea mays); [16])	Plant response rating, Galium [7, 16]	Plant response rating, Kochia (kochia (Bassia scoparia) [8]; [16])	Plant response rating, Pigweed [9, 16]	Kochia plant response rating (kochia (Bassia scoparia) [10])	Plant response rating, Kochia (kochia (Bassia scoparia) [10])	Barnyardgrass plant response rating [11]	Plant response rating, Barnyardgrass [11]	Plant response rating, Barnyardgrass [12, 16]	Plant response rating, Ryegrass, Italian [13, 16]	other results
CCn1nccc(-c2cc(NS(=O)(=O)C(F)(F)F)c(C)cc2C)c1=O [Compound 79]	80	90	100	100	90	100	70	90	90	100	10	90	40	30	70	90	100	100	80	40	Wheat plant response rating ([4]; 500 g ai/ha): 80; Foxtail, Giant plant response rating ([5]; 500 g ai/ha): 90; Corn plant response rating (corn (Zea mays); 500 g ai/ha): 70; Galium plant response rating ([7]; 500 g ai/ha): 90; Kochia plant response rating (kochia (Bassia scoparia) [8]; 500 g ai/ha): 70; Pigweed plant response rating ([9]; 500 g ai/ha): 80; Barnyardgrass plant response rating ([12]; 500 g ai/ha): 90; Ryegrass, Italian plant response rating ([13]; 500 g ai/ha): 80; Plant response rating, Blackgrass [14, 16]: 30; Blackgrass plant response rating ([14]; 500 g ai/ha): 30; Plant response rating, Ragweed [15, 16]: 30; Ragweed plant response rating ([15]; 500 g ai/ha): 80
Cc1cc(Cl)c(NS(=O)(=O)C(F)(F)F)cc1C(=O)N1CCC(C#N)CC1 [Compound 17]	80	80	100	100	90	100	70	90	80	100	10	80	60	60	70	90	100	100	30	0	Plant response rating, Wheat [4, 17]: 60; Plant response rating, Foxtail, Giant [5, 17]: 90; Plant response rating, Corn (corn (Zea mays); [17]): 20; Plant response rating, Galium [7, 17]: 90; Plant response rating, Kochia (kochia (Bassia scoparia) [8]; [17]): 70; Plant response rating, Pigweed [9, 17]: 70; Plant response rating, Barnyardgrass [12, 17]: 90; Plant response rating, Ryegrass, Italian [13, 17]: 70; Plant response rating, Blackgrass [14, 16]: 0; Plant response rating, Blackgrass [14, 17]: 30; Plant response rating, Ragweed [15, 16]: 80; Plant response rating, Ragweed [15, 17]: 90
COc1cnn(C)c(=O)c1-c1cc(NS(=O)(=O)C(F)(F)F)c(C)cc1C [Compound 65]	0	0	80	100	0	30	0	0	30	60	0	0	0	0	0	60	0	90	0	0	Wheat plant response rating ([4]; 500 g ai/ha): 50; Foxtail, Giant plant response rating ([5]; 500 g ai/ha): 40; Corn plant response rating (corn (Zea mays); 500 g ai/ha): 0; Galium plant response rating ([7]; 500 g ai/ha): 30; Kochia plant response rating (kochia (Bassia scoparia) [8]; 500 g ai/ha): 0; Pigweed plant response rating ([9]; 500 g ai/ha): 0; Barnyardgrass plant response rating ([12]; 500 g ai/ha): 70; Ryegrass, Italian plant response rating ([13]; 500 g ai/ha): 0; Plant response rating, Blackgrass [14, 16]: 0; Blackgrass plant response rating ([14]; 500 g ai/ha): 0; Plant response rating, Ragweed [15, 16]: 0; Ragweed plant response rating ([15]; 500 g ai/ha): 0
